# Measurements published in ChEMBL document CHEMBL1671660, “Efficacy of iclaprim against wild-type and thymidine kinase-deficient methicillin-resistant Staphylococcus aureus isolates in an in vitro fibrin clot model” (Antimicrob Agents Chemother, 2009).
# Activity calls are given as the source filed them. The rule behind the calls is not given here.
# What was measured:
# Staphylococcus aureus [1] = experiment: Bacteriostatic activity against methicillin-resistant Staphylococcus aureus AW6 infected in in vitro human fibrin clot model assessed as reduction in bacterial colony at 40 ug/ml after 24 hrs; assay type: functional, organism-based
# Staphylococcus aureus [2] = experiment: Bactericidal activity against methicillin-resistant Staphylococcus aureus AW6 at 40 ug/ml by time kill analysis in presence of 50% human serum; assay type: functional, organism-based
# Staphylococcus aureus [3] = experiment: Bactericidal activity against methicillin-resistant Staphylococcus aureus AW6 infected in in vitro rat fibrin clot model assessed as reduction in bacterial colony at 40 ug/ml after 48 hrs; assay type: functional, organism-based
# Staphylococcus aureus [4] = experiment: Bactericidal activity against thymidine kinase-deficient methicillin-resistant Staphylococcus aureus AH1252 at 40 ug/ml by time kill analysis in presence of 50% rat serum; assay type: functional, organism-based
# Staphylococcus aureus [5] = experiment: Bactericidal activity against methicillin-resistant Staphylococcus aureus AW6 at 40 ug/ml by time kill analysis in presence of 50% rat serum; assay type: functional, organism-based
# Staphylococcus aureus [6] = experiment: Bactericidal activity against thymidine kinase-deficient methicillin-resistant Staphylococcus aureus AH1252 infected in in vitro rat fibrin clot model assessed as reduction in bacterial colony at 40 ug/ml after 24 hrs; assay type: functional, organism-based
# Staphylococcus aureus [7] = experiment: Bactericidal activity against thymidine kinase-deficient methicillin-resistant Staphylococcus aureus AH1252 infected in in vitro rat fibrin clot model assessed as reduction in bacterial colony at 40 ug/ml after 48 hrs; assay type: functional, organism-based
# Staphylococcus aureus [8] = experiment: Bactericidal activity against thymidine kinase-deficient methicillin-resistant Staphylococcus aureus AH1252 at 40 ug/ml by time kill analysis in presence of 50% human serum; assay type: functional, organism-based
# Staphylococcus aureus [9] = experiment: Bactericidal activity against methicillin-resistant Staphylococcus aureus AW6 infected in in vitro human fibrin clot model assessed as log reduction in bacterial colony at 3.5 ug/ml after 24 hrs; assay type: functional
# [10] = Protein binding in human serum; assay type: ADME, cell-free; conditions: read-out: PB (converted)
# Staphylococcus aureus [11] = experiment: Bactericidal activity against methicillin-resistant Staphylococcus aureus AW6 at 3.5 ug/ml by time kill analysis in presence of 50% human serum and 1 ug/ml thymidine; assay type: functional, organism-based
# Staphylococcus aureus [12] = experiment: Bactericidal activity against methicillin-resistant Staphylococcus aureus AW6 at 3.5 ug/ml by time kill analysis in presence of 50% rat serum and 0.2 U/ml thymidine phosphorylase; assay type: functional, organism-based
# Staphylococcus aureus [13] = experiment: […] activity against methicillin-resistant Staphylococcus aureus AW6 assessed as loss of bacterial cell viability at 3.5 ug/ml measured within 8 hrs by time kill analysis in presence of 50% human serum; assay type: functional
# Staphylococcus aureus [14] = experiment: Antimicrobial activity against methicillin-resistant Staphylococcus aureus AW6 grown on CAMHB media after 24 hrs by broth microdilution method in presence of 50% human serum and 0.2 U/ml thymidine phosphorylase; assay type: functional; conditions: AW6, 24 h
# Staphylococcus aureus [15] = experiment: Antimicrobial activity against thymidine kinase-deficient methicillin-resistant Staphylococcus aureus AH1252 grown on CAMHB media after 24 hrs by broth microdilution method in presence of 50% human serum; assay type: functional; conditions: AH1252, 24 h
# Staphylococcus aureus [16] = experiment: Antimicrobial activity against thymidine kinase-deficient methicillin-resistant Staphylococcus aureus AH1252 grown on CAMHB media after 24 hrs by broth microdilution method in presence of 0.2 U/ml thymidine phosphorylase; assay type: functional; conditions: AH1252, 24 h
# Staphylococcus aureus [17] = experiment: Antimicrobial activity against thymidine kinase-deficient methicillin-resistant Staphylococcus aureus AH1252 grown on CAMHB media after 24 hrs by broth microdilution method in presence of 50% rat serum; assay type: functional; conditions: AH1252, 24 h
# [18] = Protein binding in rat serum; assay type: ADME, cell-free; conditions: read-out: PB (converted)
# Staphylococcus aureus [19] = experiment: Bactericidal activity against thymidine kinase-deficient methicillin-resistant Staphylococcus aureus AH1252 assessed as loss of bacterial cell viability at 3.5 ug/ml measured within 8 hrs by time kill analysis in presence of 50% human serum; assay type: functional
# Staphylococcus aureus [20] = experiment: Antimicrobial activity against methicillin-resistant Staphylococcus aureus AW6 grown on CAMHB media after 24 hrs by broth microdilution method; assay type: functional; conditions: AW6, 24 h
# Staphylococcus aureus [21] = experiment: Antimicrobial activity against thymidine kinase-deficient methicillin-resistant Staphylococcus aureus AH1252 grown on CAMHB media after 24 hrs by broth microdilution method in presence of protein depleted rat serum; assay type: functional; conditions: AH1252, 24 h
# Staphylococcus aureus [22] = experiment: Antimicrobial activity against methicillin-resistant Staphylococcus aureus AW6 grown on CAMHB media after 24 hrs by broth microdilution method in presence of protein depleted rat serum; assay type: functional; conditions: AW6, 24 h
# Staphylococcus aureus [23] = experiment: Antimicrobial activity against methicillin-resistant Staphylococcus aureus AW6 grown on CAMHB media after 24 hrs by broth microdilution method in presence of 0.2 U/ml thymidine phosphorylase; assay type: functional; conditions: AW6, 24 h
# [24] = Plasma protein binding in human; assay type: ADME, cell-free; conditions: read-out: PPB (converted)
# Staphylococcus aureus [25] = experiment: Antimicrobial activity against methicillin-resistant Staphylococcus aureus AW6 grown on CAMHB media after 24 hrs by broth microdilution method in presence of protein depleted human serum; assay type: functional; conditions: AW6, 24 h
# Staphylococcus aureus [26] = experiment: Antimicrobial activity against thymidine kinase-deficient methicillin-resistant Staphylococcus aureus AH1252 grown on CAMHB media after 24 hrs by broth microdilution method in presence of 50% human serum and 1 ug/ml thymidine; assay type: functional; conditions: AH1252, 24 h
# Staphylococcus aureus [27] = experiment: Antimicrobial activity against methicillin-resistant Staphylococcus aureus AW6 grown on CAMHB media after 24 hrs by broth microdilution method in presence of 50% human serum and 1 ug/ml thymidine; assay type: functional; conditions: AW6, 24 h
# Staphylococcus aureus [28] = experiment: Antimicrobial activity against thymidine kinase-deficient methicillin-resistant Staphylococcus aureus AH1252 grown on CAMHB media after 24 hrs by broth microdilution method in presence of 50% human serum and 0.2 U/ml thymidine phosphorylase; assay type: functional; conditions: AH1252, 24 h
# Staphylococcus aureus [29] = experiment: […] activity against methicillin-resistant Staphylococcus aureus AW6 assessed as loss of bacterial cell viability at 3.5 ug/ml by time kill analysis in presence of 50% rat serum; assay type: functional
# Staphylococcus aureus [30] = experiment: Antimicrobial activity against thymidine kinase-deficient methicillin-resistant Staphylococcus aureus AH1252 grown on CAMHB media after 24 hrs by broth microdilution method in presence of 50% rat serum and 0.2 U/ml thymidine phosphorylase; assay type: functional; conditions: AH1252, 24 h
# Staphylococcus aureus [31] = experiment: Bactericidal activity against thymidine kinase-deficient methicillin-resistant Staphylococcus aureus AH1252 infected in in vitro human fibrin clot model assessed as log reduction in bacterial colony at 3.5 ug/ml after 24 hrs; assay type: functional
# Staphylococcus aureus [32] = experiment: Bacteriostatic activity against methicillin-resistant Staphylococcus aureus AW6 infected in in vitro rat fibrin clot model assessed as reduction in bacterial colony at 3.5 ug/ml after 48 hrs; assay type: functional, organism-based
# Staphylococcus aureus [33] = experiment: Antimicrobial activity against methicillin-resistant Staphylococcus aureus AW6 grown on CAMHB media after 24 hrs by broth microdilution method in presence of 50% rat serum; assay type: functional; conditions: AW6, 24 h
# Staphylococcus aureus [34] = experiment: Antimicrobial activity against thymidine kinase-deficient methicillin-resistant Staphylococcus aureus AH1252 grown on CAMHB media after 24 hrs by broth microdilution method; assay type: functional; conditions: AH1252, 24 h
# Staphylococcus aureus [35] = experiment: Bactericidal activity against thymidine kinase-deficient methicillin-resistant Staphylococcus aureus AH1252 assessed as loss of bacterial cell viability at 3.5 ug/ml by time kill analysis in presence of 50% rat serum; assay type: functional, organism-based
# Staphylococcus aureus [36] = experiment: Antimicrobial activity against thymidine kinase-deficient methicillin-resistant Staphylococcus aureus AH1252 grown on CAMHB media after 24 hrs by broth microdilution method in presence of protein depleted human serum; assay type: functional; conditions: AH1252, 24 h
# Staphylococcus aureus [37] = experiment: Bactericidal activity against thymidine kinase-deficient methicillin-resistant Staphylococcus aureus AH1252 infected in in vitro rat fibrin clot model assessed as reduction in bacterial colony at 3.5 ug/ml after 48 hrs; assay type: functional, organism-based
# Staphylococcus aureus [38] = experiment: Antimicrobial activity against methicillin-resistant Staphylococcus aureus AW6 grown on CAMHB media after 24 hrs by broth microdilution method in presence of 50% rat serum and 0.2 U/ml thymidine phosphorylase; assay type: functional; conditions: AW6, 24 h
# Staphylococcus aureus [39] = experiment: Bactericidal activity against methicillin-resistant Staphylococcus aureus AW6 at 3.5 ug/ml by time kill analysis in presence of 50% rat serum and 1 ug/ml thymidine; assay type: functional, organism-based
# Staphylococcus aureus [40] = experiment: Antimicrobial activity against methicillin-resistant Staphylococcus aureus AW6 grown on CAMHB media after 24 hrs by broth microdilution method in presence of 50% human serum; assay type: functional; conditions: AW6, 24 h
smiles,measurement,setting,value
CN[C@H](CC(C)C)C(=O)N[C@H]1C(=O)N[C@@H](CC(N)=O)C(=O)N[C@H]2C(=O)N[C@H]3C(=O)N[C@H](C(=O)N[C@H](C(=O)O)c4cc(O)cc(O)c4-c4cc3ccc4O)[C@H](O)c3ccc(c(Cl)c3)Oc3cc2cc(c3O[C@@H]2O[C@H](CO)[C@@H](O)[C@H](O)[C@H]2O[C@H]2C[C@](C)(N)[C@H](O)[C@H](C)O2)Oc2ccc(cc2Cl)[C@H]1O,Activity,Staphylococcus aureus [1],Active
same,Activity,Staphylococcus aureus [2],Active
same,Activity,Staphylococcus aureus [3],Active
same,Activity,Staphylococcus aureus [4],Active
same,Activity,Staphylococcus aureus [5],Active
same,Activity,Staphylococcus aureus [6],Active
same,Activity,Staphylococcus aureus [7],Active
same,Activity,Staphylococcus aureus [8],Active
COc1cc(Cc2cnc(N)nc2N)c2c(c1OC)OC(C1CC1)C=C2 (stereo not given) [ICLAPRIM],log10CFU/ml,Staphylococcus aureus [9],>=3
same,fraction unbound,[10],0.05
same,Activity,Staphylococcus aureus [11],inactive
same,Activity,Staphylococcus aureus [12],Active
same,log10CFU/ml,Staphylococcus aureus [13],>=3
same,MIC,Staphylococcus aureus [14],0.2 µg/mL
same,MIC,Staphylococcus aureus [15],0.06 µg/mL
same,MIC,Staphylococcus aureus [16],0.03 µg/mL
same,MIC,Staphylococcus aureus [17],0.03 µg/mL
same,fraction unbound,[18],0.1
same,log10CFU/ml,Staphylococcus aureus [19],>=3
same,MIC,Staphylococcus aureus [20],0.06 µg/mL
same,MIC,Staphylococcus aureus [21],0.06 µg/mL
same,MIC,Staphylococcus aureus [22],> 2 µg/mL
same,MIC,Staphylococcus aureus [23],0.03 µg/mL
same,fraction unbound,[24],0.07
same,MIC,Staphylococcus aureus [25],0.03 µg/mL
same,MIC,Staphylococcus aureus [26],0.03 µg/mL
same,MIC,Staphylococcus aureus [27],> 2 µg/mL
same,MIC,Staphylococcus aureus [28],0.06 µg/mL
same,log10CFU/ml,Staphylococcus aureus [29],>=3
same,MIC,Staphylococcus aureus [30],0.03 µg/mL
same,log10CFU/ml,Staphylococcus aureus [31],>=3
same,Activity,Staphylococcus aureus [32],Active
same,MIC,Staphylococcus aureus [33],> 2 µg/mL
same,MIC,Staphylococcus aureus [34],0.03 µg/mL
same,Activity,Staphylococcus aureus [35],Active
same,MIC,Staphylococcus aureus [36],0.03 µg/mL
same,Activity,Staphylococcus aureus [37],Active
same,MIC,Staphylococcus aureus [38],0.06 µg/mL
same,Activity,Staphylococcus aureus [39],inactive
same,MIC,Staphylococcus aureus [40],0.12 µg/mL
